Data published in US10710978B2, “STK4 inhibitors for treatment of hematologic malignancies” (Dana-Farber Cancer Institute, Inc., priority 2015, dated 2020).
Where two headings read alike, the source gives them in different places.

Columns and labels:
Assay in all cases: KiNativ assay
Type in all cases: binding
MLKL = MLKL (Homo sapiens (Human), UniProt Q8NB16); conditions: H929 live cell
Experimental: (§1) Biochemical IC50s of the compounds of the present disclosure against various kinases were measured in a KiNativ assay. Compounds were screened in duplicate at 10 μM in H929 live cell. IC50 was measured via Mass spectroscopy (MS).

RSK1 domain1 = RSK1 domain1 (Homo sapiens (Human), UniProt Q15418); conditions: H929 live cell
Experimental: as §1

PHKg2 = PHKg2 (Homo sapiens (Human), UniProt P15735); conditions: H929 live cell
Sequence of PHKg2 (P15735 whole entry): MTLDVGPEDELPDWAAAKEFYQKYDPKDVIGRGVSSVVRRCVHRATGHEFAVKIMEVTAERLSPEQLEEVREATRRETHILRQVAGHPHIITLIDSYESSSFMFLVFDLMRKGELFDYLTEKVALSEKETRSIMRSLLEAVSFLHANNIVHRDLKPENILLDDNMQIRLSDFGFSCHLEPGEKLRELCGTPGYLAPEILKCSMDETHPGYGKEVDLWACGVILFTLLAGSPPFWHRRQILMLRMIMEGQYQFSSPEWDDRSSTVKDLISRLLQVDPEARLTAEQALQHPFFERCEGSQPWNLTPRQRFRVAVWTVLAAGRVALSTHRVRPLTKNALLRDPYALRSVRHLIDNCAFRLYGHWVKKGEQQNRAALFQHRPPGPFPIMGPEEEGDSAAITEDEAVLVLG
Experimental: as §1

FYN, SRC, YES = conditions: H929 live cell
Experimental: as §1

NEK1 = NEK1 (Homo sapiens (Human), UniProt Q96PY6); conditions: H929 live cell
Experimental: as §1

p70S6Kb = p70S6Kb (Homo sapiens (Human), UniProt Q9UBS0); conditions: H929 live cell
Experimental: as §1

p38d, p38g = conditions: H929 live cell
Experimental: as §1

PKD2 = PKD2 (Homo sapiens (Human), UniProt Q9BZL6); conditions: H929 live cell
Experimental: as §1

AKT1 = AKT1 (Homo sapiens (Human), UniProt P31749); conditions: H929 live cell
Experimental: as §1

GSK3A = GSK3A (Homo sapiens (Human), UniProt P49840); conditions: H929 live cell
Sequence of GSK3A (P49840 whole entry): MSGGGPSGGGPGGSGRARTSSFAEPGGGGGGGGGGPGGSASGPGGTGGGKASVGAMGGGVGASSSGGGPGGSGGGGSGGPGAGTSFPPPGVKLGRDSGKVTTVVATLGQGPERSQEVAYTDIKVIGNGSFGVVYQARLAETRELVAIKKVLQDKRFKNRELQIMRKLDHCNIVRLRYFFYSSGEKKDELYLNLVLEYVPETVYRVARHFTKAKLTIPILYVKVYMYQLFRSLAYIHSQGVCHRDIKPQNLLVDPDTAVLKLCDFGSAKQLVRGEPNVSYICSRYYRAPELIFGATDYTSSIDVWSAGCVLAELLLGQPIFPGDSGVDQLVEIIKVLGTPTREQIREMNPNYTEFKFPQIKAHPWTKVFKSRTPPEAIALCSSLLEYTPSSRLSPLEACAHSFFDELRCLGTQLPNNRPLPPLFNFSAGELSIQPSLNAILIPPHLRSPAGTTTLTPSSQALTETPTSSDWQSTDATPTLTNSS
Experimental: as §1

MAP2K5 = MAP2K5 (Homo sapiens (Human), UniProt Q13163); conditions: H929 live cell
Experimental: as §1

NEK7 = NEK7 (Homo sapiens (Human), UniProt Q8TDX7); conditions: H929 live cell
Experimental: as §1

[1] = test system: RSK1 domain1, RSK2 domain1, RSK3 domain1; conditions: H929 live cell
Experimental: as §1

PIK3C3 = PIK3C3 (Homo sapiens (Human), UniProt Q8NEB9); conditions: H929 live cell, read-out: inhibition (10 μM)
Experimental: as §1

MAP2K1, MAP2K2 = conditions: 10 μM, H929 live cell
Experimental: as §1

PI4KB = PI4KB (Homo sapiens (Human), UniProt Q9UBF8); conditions: H929 live cell
Experimental: as §1

JAK3 domain2 = JAK3 domain2 (Homo sapiens (Human), UniProt P52333); conditions: H929 live cell
Sequence of JAK3 domain2 (P52333 whole entry, the tested form may be a part): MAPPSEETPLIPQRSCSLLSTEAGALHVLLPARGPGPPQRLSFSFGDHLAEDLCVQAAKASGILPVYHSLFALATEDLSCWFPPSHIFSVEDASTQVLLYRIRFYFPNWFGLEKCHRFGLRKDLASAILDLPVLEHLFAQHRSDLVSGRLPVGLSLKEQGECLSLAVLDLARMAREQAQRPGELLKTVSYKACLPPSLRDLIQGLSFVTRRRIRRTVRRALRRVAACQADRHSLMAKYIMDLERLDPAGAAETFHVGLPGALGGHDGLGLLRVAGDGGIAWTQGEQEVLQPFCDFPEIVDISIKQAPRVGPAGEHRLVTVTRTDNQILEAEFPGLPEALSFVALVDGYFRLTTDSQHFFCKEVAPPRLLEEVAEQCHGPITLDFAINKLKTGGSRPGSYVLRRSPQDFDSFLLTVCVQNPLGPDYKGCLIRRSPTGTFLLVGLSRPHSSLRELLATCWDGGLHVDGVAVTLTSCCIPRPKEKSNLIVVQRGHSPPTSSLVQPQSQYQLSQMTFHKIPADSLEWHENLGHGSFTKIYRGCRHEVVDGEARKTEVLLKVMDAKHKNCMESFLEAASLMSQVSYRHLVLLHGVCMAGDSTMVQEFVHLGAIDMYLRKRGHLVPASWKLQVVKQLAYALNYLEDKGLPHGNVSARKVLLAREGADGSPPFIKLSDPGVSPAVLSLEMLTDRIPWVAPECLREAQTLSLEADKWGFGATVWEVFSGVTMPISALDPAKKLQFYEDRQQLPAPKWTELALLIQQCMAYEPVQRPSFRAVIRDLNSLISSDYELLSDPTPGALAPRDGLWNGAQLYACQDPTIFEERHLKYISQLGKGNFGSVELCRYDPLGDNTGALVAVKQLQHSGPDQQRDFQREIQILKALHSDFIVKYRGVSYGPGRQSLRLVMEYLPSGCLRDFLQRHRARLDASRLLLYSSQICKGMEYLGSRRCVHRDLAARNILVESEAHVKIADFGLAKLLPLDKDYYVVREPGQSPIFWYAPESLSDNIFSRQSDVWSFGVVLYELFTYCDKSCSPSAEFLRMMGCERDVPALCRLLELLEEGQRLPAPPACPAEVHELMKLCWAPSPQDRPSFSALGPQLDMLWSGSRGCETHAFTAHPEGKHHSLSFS
Experimental: as §1

PKR = PKR (Homo sapiens (Human), UniProt P19525); conditions: H929 live cell
Sequence of PKR (P19525 whole entry): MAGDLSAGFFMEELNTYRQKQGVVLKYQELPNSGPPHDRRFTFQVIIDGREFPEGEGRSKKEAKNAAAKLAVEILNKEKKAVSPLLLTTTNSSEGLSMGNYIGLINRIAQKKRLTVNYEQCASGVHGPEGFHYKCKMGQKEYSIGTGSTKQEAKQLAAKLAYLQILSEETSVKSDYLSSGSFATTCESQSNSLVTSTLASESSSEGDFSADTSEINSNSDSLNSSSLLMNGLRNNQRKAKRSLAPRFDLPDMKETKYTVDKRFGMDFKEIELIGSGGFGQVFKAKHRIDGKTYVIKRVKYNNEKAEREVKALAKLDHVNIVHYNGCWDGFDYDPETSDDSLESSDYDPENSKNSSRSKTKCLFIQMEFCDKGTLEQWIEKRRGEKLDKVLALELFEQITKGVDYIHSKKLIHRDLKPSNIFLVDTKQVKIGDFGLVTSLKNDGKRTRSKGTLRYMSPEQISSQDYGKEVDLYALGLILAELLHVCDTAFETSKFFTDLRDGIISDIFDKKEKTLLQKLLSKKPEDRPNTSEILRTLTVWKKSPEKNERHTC
Experimental: as §1

LATS1 = LATS1 (Homo sapiens (Human), UniProt O95835); conditions: H929 live cell
Sequence of LATS1 (O95835 whole entry): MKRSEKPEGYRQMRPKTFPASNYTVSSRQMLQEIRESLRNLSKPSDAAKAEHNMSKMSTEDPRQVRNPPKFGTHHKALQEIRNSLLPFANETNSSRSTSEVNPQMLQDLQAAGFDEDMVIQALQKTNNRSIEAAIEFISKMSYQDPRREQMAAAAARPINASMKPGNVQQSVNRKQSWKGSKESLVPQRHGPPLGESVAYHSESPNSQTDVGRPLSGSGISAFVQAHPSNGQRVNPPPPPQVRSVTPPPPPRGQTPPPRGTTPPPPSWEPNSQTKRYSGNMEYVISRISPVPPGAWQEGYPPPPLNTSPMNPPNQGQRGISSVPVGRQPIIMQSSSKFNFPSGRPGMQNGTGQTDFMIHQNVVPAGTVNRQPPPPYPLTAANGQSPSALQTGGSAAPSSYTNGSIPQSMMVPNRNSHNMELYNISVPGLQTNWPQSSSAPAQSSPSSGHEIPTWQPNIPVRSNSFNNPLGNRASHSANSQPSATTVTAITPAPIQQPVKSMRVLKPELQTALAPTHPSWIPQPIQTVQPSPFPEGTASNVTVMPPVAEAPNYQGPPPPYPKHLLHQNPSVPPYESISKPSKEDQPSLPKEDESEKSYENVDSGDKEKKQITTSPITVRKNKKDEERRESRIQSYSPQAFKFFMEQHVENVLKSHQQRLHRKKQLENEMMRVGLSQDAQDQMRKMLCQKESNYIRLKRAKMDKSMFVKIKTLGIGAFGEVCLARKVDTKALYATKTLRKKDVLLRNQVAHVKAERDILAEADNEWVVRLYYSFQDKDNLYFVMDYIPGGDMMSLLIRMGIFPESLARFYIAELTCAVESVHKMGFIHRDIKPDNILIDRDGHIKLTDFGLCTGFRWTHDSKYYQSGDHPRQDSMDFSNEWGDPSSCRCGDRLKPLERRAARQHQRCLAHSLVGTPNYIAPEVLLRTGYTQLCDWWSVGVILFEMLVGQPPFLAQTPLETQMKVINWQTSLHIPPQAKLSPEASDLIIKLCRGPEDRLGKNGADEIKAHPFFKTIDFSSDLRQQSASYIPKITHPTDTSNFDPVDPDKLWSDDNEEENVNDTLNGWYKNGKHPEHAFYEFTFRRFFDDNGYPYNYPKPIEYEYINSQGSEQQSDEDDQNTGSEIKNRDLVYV
Experimental: as §1

Erk2 = Erk2 (Homo sapiens (Human), UniProt P28482); conditions: H929 live cell
Sequence of Erk2 (P28482 whole entry): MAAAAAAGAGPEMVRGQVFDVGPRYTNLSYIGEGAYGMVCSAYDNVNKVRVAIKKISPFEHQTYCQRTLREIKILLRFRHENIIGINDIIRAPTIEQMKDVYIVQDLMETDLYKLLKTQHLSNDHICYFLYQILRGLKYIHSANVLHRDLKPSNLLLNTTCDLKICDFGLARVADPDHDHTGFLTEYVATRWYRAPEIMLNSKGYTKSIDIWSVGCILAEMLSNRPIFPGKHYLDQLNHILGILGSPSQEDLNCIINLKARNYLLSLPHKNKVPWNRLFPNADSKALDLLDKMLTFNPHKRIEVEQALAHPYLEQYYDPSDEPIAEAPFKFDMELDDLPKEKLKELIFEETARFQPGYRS
Experimental: as §1

IRAK1 = IRAK1 (Homo sapiens (Human), UniProt P51617); conditions: H929 live cell
Sequence of IRAK1 (P51617 whole entry): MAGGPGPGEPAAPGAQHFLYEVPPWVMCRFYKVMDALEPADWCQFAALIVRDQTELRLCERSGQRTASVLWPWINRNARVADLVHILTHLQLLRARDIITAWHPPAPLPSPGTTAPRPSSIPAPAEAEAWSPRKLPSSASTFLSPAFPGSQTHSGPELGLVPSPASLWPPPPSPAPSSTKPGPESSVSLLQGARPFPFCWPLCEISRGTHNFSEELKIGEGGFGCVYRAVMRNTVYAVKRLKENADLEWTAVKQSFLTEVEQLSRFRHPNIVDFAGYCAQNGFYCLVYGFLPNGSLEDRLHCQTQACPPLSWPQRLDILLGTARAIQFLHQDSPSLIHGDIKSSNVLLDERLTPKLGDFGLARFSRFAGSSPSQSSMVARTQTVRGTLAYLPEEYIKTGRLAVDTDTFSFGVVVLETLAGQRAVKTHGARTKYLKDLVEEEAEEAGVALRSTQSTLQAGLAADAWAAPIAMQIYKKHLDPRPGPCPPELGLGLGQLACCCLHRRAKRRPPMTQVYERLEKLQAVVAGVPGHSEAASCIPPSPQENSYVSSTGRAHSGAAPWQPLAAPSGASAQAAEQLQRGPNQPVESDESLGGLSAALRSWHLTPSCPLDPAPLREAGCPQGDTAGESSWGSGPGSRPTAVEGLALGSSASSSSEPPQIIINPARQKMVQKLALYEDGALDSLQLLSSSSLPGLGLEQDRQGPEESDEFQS
Experimental: as §1

SMG1 = SMG1 (Homo sapiens (Human), UniProt Q96Q15); conditions: H929 live cell
Experimental: as §1

MSK1 domain1 = MSK1 domain1 (Homo sapiens (Human), UniProt O75582); conditions: H929 live cell
Experimental: as §1

PIK3CB = PIK3CB (Homo sapiens (Human), UniProt P42338); conditions: H929 live cell
Experimental: as §1

MARK2, MARK3 = conditions: H929 live cell
Experimental: as §1

PI4KA, PI4KAP2 = conditions: H929 live cell
Experimental: as §1

OSR1 = OSR1 (Homo sapiens (Human), UniProt O95747); conditions: H929 live cell
Experimental: as §1

AMPKa1, AMPKa2 = conditions: H929 live cell
Experimental: as §1

IRAK4 = IRAK4 (Homo sapiens (Human), UniProt Q9NWZ3); conditions: H929 live cell
Experimental: as §1

TLK1 = TLK1 (Homo sapiens (Human), UniProt Q9UKI8); conditions: H929 live cell
Experimental: as §1

MST3 = MST3 (Homo sapiens (Human), UniProt Q9Y6E0); conditions: H929 live cell
Experimental: as §1

CDK5 = CDK5 (Homo sapiens (Human), UniProt Q00535); conditions: H929 live cell
Experimental: as §1

CaMKK2 = CaMKK2 (Homo sapiens (Human), UniProt Q96RR4); conditions: H929 live cell
Experimental: as §1

KHS1 = KHS1 (Homo sapiens (Human), UniProt Q9Y4K4); conditions: H929 live cell
Experimental: as §1

## Nc1ncc(-c2cccc([N+](=O)[O-])c2F)cc1-c1ccc2c(c1)CCNC2=O [Compound I-9, 6-(2-amino-5-(2-fluoro-3-nitrophenyl)pyridin-3-yl)-3,4-dihydroisoquinolin-1(2H)-one]
MLKL; read-out: % inhibition (range)
  inhibition at 10 µM: 50 to 75%
MLKL; read-out: inhibition (10 μM)
  inhibition at 10 µM: 66.9%
RSK1 domain1; read-out: % inhibition (range)
  inhibition at 10 µM: 0%
RSK1 domain1; read-out: inhibition (10 μM)
  inhibition at 10 µM: 24%
PHKg2; read-out: % inhibition (range)
  inhibition at 10 µM: 0%
PHKg2; read-out: inhibition (10 μM)
  inhibition at 10 µM: -30.7%
FYN, SRC, YES; 10 μM
  % inhibition (range): 0.0%
FYN, SRC, YES
  inhibition (10 μM): 28.3%
NEK1; read-out: % inhibition (range)
  inhibition at 10 µM: 0%
NEK1; read-out: inhibition (10 μM)
  inhibition at 10 µM: -34%
p70S6Kb; read-out: % inhibition (range)
  inhibition at 10 µM: 0%
p70S6Kb; read-out: inhibition (10 μM)
  inhibition at 10 µM: -84.5%
p38d, p38g; 10 μM
  % inhibition (range): 0.0%
p38d, p38g
  inhibition (10 μM): −11.0%
PKD2; read-out: % inhibition (range)
  inhibition at 10 µM: 35 to 50%
PKD2; read-out: inhibition (10 μM)
  inhibition at 10 µM: 46.2%
AKT1; read-out: % inhibition (range)
  inhibition at 10 µM: 0%
AKT1; read-out: inhibition (10 μM)
  inhibition at 10 µM: 32.8%
GSK3A; read-out: % inhibition (range)
  inhibition at 10 µM: > 90%
GSK3A; read-out: inhibition (10 μM)
  inhibition at 10 µM: 97.2%
MAP2K5; read-out: % inhibition (range)
  inhibition at 10 µM: 75 to 90%
MAP2K5; read-out: inhibition (10 μM)
  inhibition at 10 µM: 75.2%
NEK7; read-out: % inhibition (range)
  inhibition at 10 µM: 0%
NEK7; read-out: inhibition (10 μM)
  inhibition at 10 µM: -39.5%
[1]; 10 μM
  % inhibition (range): 50-75%
[1]
  inhibition (10 μM): 58.7%
PIK3C3
  inhibition at 10 µM: 51.2%
MAP2K1, MAP2K2
  % inhibition (range): 0.0%
PI4KB; read-out: % inhibition (range)
  inhibition at 10 µM: 0%
PI4KB; read-out: inhibition (10 μM)
  inhibition at 10 µM: -13.8%
JAK3 domain2; read-out: % inhibition (range)
  inhibition at 10 µM: 0%
JAK3 domain2; read-out: inhibition (10 μM)
  inhibition at 10 µM: 2.6%
PKR; read-out: % inhibition (range)
  inhibition at 10 µM: 0%
PKR; read-out: inhibition (10 μM)
  inhibition at 10 µM: -36.7%
LATS1; read-out: % inhibition (range)
  inhibition at 10 µM: 0%
LATS1; read-out: inhibition (10 μM)
  inhibition at 10 µM: 33.1%
Erk2; read-out: % inhibition (range)
  inhibition at 10 µM: 50 to 75%
Erk2; read-out: inhibition (10 μM)
  inhibition at 10 µM: 60.2%
IRAK1; read-out: % inhibition (range)
  inhibition at 10 µM: 75 to 90%
IRAK1; read-out: inhibition (10 μM)
  inhibition at 10 µM: 82.6%
SMG1; read-out: % inhibition (range)
  inhibition at 10 µM: > 90%
SMG1; read-out: inhibition (10 μM)
  inhibition at 10 µM: 94.7%
MSK1 domain1; read-out: % inhibition (range)
  inhibition at 10 µM: 0%
MSK1 domain1; read-out: inhibition (10 μM)
  inhibition at 10 µM: 2%
PIK3CB; read-out: % inhibition (range)
  inhibition at 10 µM: 0%
PIK3CB; read-out: inhibition (10 μM)
  inhibition at 10 µM: 14.6%
MARK2, MARK3; 10 μM
  % inhibition (range): 50-75%
MARK2, MARK3
  inhibition (10 μM): 70.2%
PI4KA, PI4KAP2; 10 μM
  % inhibition (range): 0.0%
PI4KA, PI4KAP2
  inhibition (10 μM): −5.5%
OSR1; read-out: % inhibition (range)
  inhibition at 10 µM: 0%
OSR1; read-out: inhibition (10 μM)
  inhibition at 10 µM: -11.8%
AMPKa1, AMPKa2; 10 μM
  % inhibition (range): 50-75%
AMPKa1, AMPKa2
  inhibition (10 μM): 52.0%
IRAK4; read-out: % inhibition (range)
  inhibition at 10 µM: 0%
IRAK4; read-out: inhibition (10 μM)
  inhibition at 10 µM: -14.1%
TLK1; read-out: % inhibition (range)
  inhibition at 10 µM: 0%
TLK1; read-out: inhibition (10 μM)
  inhibition at 10 µM: 28.8%
MST3; read-out: % inhibition (range)
  inhibition at 10 µM: 35 to 50%
MST3; read-out: inhibition (10 μM)
  inhibition at 10 µM: 40.4%
CDK5; read-out: % inhibition (range)
  inhibition at 10 µM: 75 to 90%
CDK5; read-out: inhibition (10 μM)
  inhibition at 10 µM: 78.7%
CaMKK2; read-out: % inhibition (range)
  inhibition at 10 µM: 50 to 75%
CaMKK2; read-out: inhibition (10 μM)
  inhibition at 10 µM: 71.8%
KHS1; read-out: % inhibition (range)
  inhibition at 10 µM: 75 to 90%
KHS1; read-out: inhibition (10 μM)
  inhibition at 10 µM: 79.5%
